{"source": "patent US20220380430A1", "about": "“Non-Transgenic Functional Rescue of Neuropeptides” (Worcester Polytechnic Institute, priority 2021, published 2022)", "key": {"flp-3 lof males [1]": {"system": "flp-3 lof males", "assay": "Drop avoidance assay to ascr #8 after FLP-3 peptide rescue-by-feeding", "format": "in vivo, C. elegans", "conditions": "flp-3 lof males raised on peptide; 1 μM ascr #8; in words", "method": "To identify which FLP-3 peptides are required for male avoidance of ascr #8, a peptide feeding approach https://www.nature.com/articles/s42003-021-02547-7-ref-CR59 was adopted, similar to RNAi feeding (FIG. 16A). Using Gateway Cloning technology, FLP-3 peptide coding sequences were inserted into a bacterial expression vector. As a control, first the FLP-3 peptides were tested that are still encoded in the ok3625 allele which are insufficient to drive the proper ascr #8 response in vivo: FLP-3-1 (SPLGTMRFamide) (SEQ ID NO: 10) and FLP-3-4 (NPLGTMRFamide) (SEQ ID NO: 11). Then flp-3 lof animals were reared on lawns of bacteria expressing the rescue constructs, and their progeny were assayed for avoidance (FIG. 16B-FIG. 16D).\nAssays were performed as described previously in Chute, C. D. & Srinivasan, J. Semin. Cell Dev. Biol. 33, 18-24 (2014); Chute, C. D. et al. Nat. Commun. 10, 3186 (2019); and Hilliard, M. A. et al., EMBO J. 23, 1101-1111 (2004). Fifty to sixty L4 worms were segregated by sex and stored at 20° C. for 5 h to overnight to be assayed as young adults. One to four hours prior to the assay, the lids of unseeded plates were tilted to allow any excess moisture to evaporate off the plates. At the time of the assay, 10 or more animals were transferred onto each of the dried, unseeded plates. A drop of either water or 1 μM ascr #8 was placed on the tail of forward moving animals, and their response was scored as either an avoidance response, or no response. The total number of avoidances was divided by the total number of drops to generate an avoidance index for that plate. This was repeated for at least 10 plates over at least three different days.\nSCRAMBLE control or FLP-3 peptide constructs were grown overnight in LB media containing […] ampicillin at 37° C. and diluted to an OD600 of 1.0 prior to seeding on NGM plates containing […] ampicillin and 1 mM IPTG. The 75 μL lawn was left to dry and grow overnight at room temperature before three L4 animals were placed on the plates. Males were selected for testing in the same manner as described above but were isolated onto plates also seeded with the same peptide on which they had been reared. Animals were then assayed using either the avoidance assay or single worm assay."}, "flp-3 lof males [2]": {"system": "flp-3 lof males", "assay": "Single worm attraction assay (SWAA) to ascr #8 after FLP-3 peptide rescue-by-feeding", "format": "in vivo, C. elegans", "conditions": "flp-3 lof males raised on peptide; in words", "method": "The outer forty wells of a 48-well suspension culture plate (Olympus Plastics, Cat #: 25-103) were seeded with 200 μL of standard NGM agar. To prepare the plates for the assay, they were acclimated to room temperature, at which point each well was seeded with 65 μL of OP50 E. coli. The assay plates were then transferred to a 37° C. incubator with the lid tilted for 4 h to allow the bacterial culture to dry on the agar. Once the bacterial culture dried, the lid was replaced the plate was stored at 20° C. until used in the assay. Fifty to sixty L4 worms were segregated by sex and stored at 20° C. for 5 h to overnight to be assayed as young adults. 0.8 μL of either vehicle control or ascaroside #8 was placed in the center of the well corresponding to that condition within the quadrant being tested, following a random block design (FIG. 11A). A single worm was placed in each of the 10 wells to be assayed, and the plate was transferred to a light source and camera and recorded for 15 m. This process was repeated for all four quadrants. Each strain and sex were assayed over five plates assayed on at least three different days. Raw dwell time values were calculated by subtracting the time a worm exited the cue (center of the well in spatial controls), from the time it entered, as in the SRA. This was determined per visit, and the average dwell time was calculated for each animal in the quadrant. Averages of the four-quadrant means were determined per plate, and a minimum of five plates were assayed per strain/condition. The mean raw dwell time across five plates was calculated and used for statistical analyses and graphical display. The average dwell time in the ascaroside was divided by the average dwell time within the vehicle control per plate to generate a fold-change. To transform the data, the log of this fold-change was taken, and the average log(fold-change) was used for statistical analyses and graphical display. […]"}}, "note": "No end group written: not given here."}
{"substance": "NSKLHRGGGRSRTSGSTGSMASHARGSPGLQ-NH2 [SCRAMBLE, scramble control peptide expressed in E. coli DH5α, negative control, reference compound]", "values": [{"measurement": "rescue of avoidance phenotype to ascr #8 (Avoidance Index)", "setting": "flp-3 lof males [1]", "result": "does not affect behavior"}, {"measurement": "rescue of attraction to ascr #8 (dwell time, log(fold-change))", "setting": "flp-3 lof males [2]", "result": "does not affect behavior"}]}
